# Assay results reported in ChEMBL document CHEMBL2331454, “Synthesis and structure-activity relationship studies of novel dual inhibitors of soluble epoxide hydrolase and 5-lipoxygenase” (J Med Chem, 2013).
# Target: Soluble epoxide hydrolase (Homo sapiens)
# Assay: Inhibition of human recombinant soluble epoxide hydrolase expressed in Escherichia coli after 30 mins by PHOME-based fluorescence assay
row,SMILES,IC50 [nM]
1,COc1ccc(-c2nc3ccc(C)cn3c2NC2CCCCC2)cc1OCCCNC(=O)Nc1ccc(OC(F)(F)F)cc1,1110
2,COc1cc(-c2nc3ccc(C)cn3c2NC2CCCCC2)ccc1OCCCNC(=O)NC1CCCCC1,190
3,COc1cc(-c2nc3ccc(C)cn3c2NC2CCCCC2)ccc1OCCCNC(=O)Nc1ccc(OC(F)(F)F)cc1,116
4,COc1cc(-c2nc3ccc(C)cn3c2NC(C)C)ccc1OCCCNC(=O)Nc1ccc(C(F)(F)F)cc1,620
5,COc1cc(-c2nc3ccc(Cl)cn3c2NC(C)C)ccc1OCCCNC(=O)Nc1ccc(C(F)(F)F)cc1,439
6,O=C(Nc1ccc(Cl)cc1)N1CCC(CO)CC1,2240

# Now from value to molecule:
row,IC50 [nM],SMILES
1,192,Cc1ccc2nc(-c3ccc(OCCCNC(=O)Nc4ccc(C(F)(F)F)cc4)c(Cl)c3)c(NC3CCCCC3)n2c1
2,439,COc1cc(-c2nc3ccc(C)cn3c2NC2CCCCC2)ccc1OCCCNC(=O)Nc1ccc(C(F)(F)F)cc1
3,336,COc1cc(-c2nc3ccc(Cl)cn3c2NC2CCCCC2)ccc1OCCCNC(=O)Nc1ccc(C(F)(F)F)cc1
4,696,COc1cc(-c2nc3ccc(F)cn3c2NC2CCCCC2)ccc1OCCCNC(=O)Nc1ccc(OC(F)(F)F)cc1
5,649,COc1cc(-c2nc3ccc(F)cn3c2NC2CCCCC2)ccc1OCCCNC(=O)Nc1ccc(C(F)(F)F)cc1
6,473,COc1cc(-c2nc3ccc(C)cn3c2NC2CCCC2)ccc1OCCCNC(=O)Nc1ccc(OC(F)(F)F)cc1
7,614,COc1cc(-c2nc3ccc(C)cn3c2NC2CCCC2)ccc1OCCCNC(=O)Nc1ccc(C(F)(F)F)cc1
8,480,COc1cc(-c2nc3ccc(F)cn3c2NC2CCCC2)ccc1OCCCNC(=O)Nc1ccc(C(F)(F)F)cc1
